Results reported in patent US20100292224A1, “ISOTHIAZOLIDINE 1,1-DIOXIDE AND TETRAHYDRO-2H-1,2-THIAZINE 1,1-DIOXIDE DERIVATIVES AS P2X7 MODULATORS” (GLAXO GROUP LIMITED, priority 2007, published 2010).

Each molecule was assayed against T1, human recombinant P2X7 receptors (Homo sapiens, UniProt Q99572) (assay: Ethidium Accumulation Assay). Conditions: HEK293 cells stably expressing human recombinant P2X7; blocking 1 mM ATP response; typically mean of more than one measurement; 'about' values; read-out: pIC50 in the Ethidium Accumulation Assay or a slightly modified version thereof (converted).
T1 construct: expressed in transfected cells
T1 sequence (Q99572 1-595): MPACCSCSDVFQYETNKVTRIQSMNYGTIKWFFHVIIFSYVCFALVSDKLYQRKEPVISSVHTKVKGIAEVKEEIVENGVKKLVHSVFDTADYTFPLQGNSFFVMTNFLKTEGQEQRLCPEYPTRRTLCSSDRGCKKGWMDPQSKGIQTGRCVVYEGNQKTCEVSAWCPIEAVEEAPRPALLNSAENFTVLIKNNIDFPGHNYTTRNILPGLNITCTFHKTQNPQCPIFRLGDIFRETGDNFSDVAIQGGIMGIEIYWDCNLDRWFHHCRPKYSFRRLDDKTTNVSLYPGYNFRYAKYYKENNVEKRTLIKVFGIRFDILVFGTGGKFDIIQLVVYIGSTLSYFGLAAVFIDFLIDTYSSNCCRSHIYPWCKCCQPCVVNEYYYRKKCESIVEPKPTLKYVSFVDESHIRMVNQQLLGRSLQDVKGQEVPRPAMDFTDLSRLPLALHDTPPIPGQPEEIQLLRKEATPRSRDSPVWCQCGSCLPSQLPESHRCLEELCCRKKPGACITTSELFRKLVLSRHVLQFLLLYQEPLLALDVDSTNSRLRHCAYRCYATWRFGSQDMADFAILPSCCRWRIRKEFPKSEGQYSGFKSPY
Format: cell-based
Method: Studies were performed using NaCl assay buffer of the following composition: 140 mM NaCl, 10 mM HEPES [4-(2-hydroxyethyl)-1-piperazine-1-ethanesulfonic acid], 5 mM N-methyl-D-glucamine, 5.6 mM KCl, 10 mM D-glucose, 0.5 mM CaCl2(pH 7.4).
Human Embryonic Kidney (HEK) 293 cells, stably expressing human recombinant P2X7 receptors, were grown in poly-D-lysine pretreated 96 well plates for 18-24 hours. (The cloning of the human P2X7 receptor is described in U.S. Pat. No. 6,133,434, e.g. see Example 3 therein). The cells were washed twice with 350 μl of the assay buffer, before addition of 50 μl of the assay buffer containing the putative P2X7 receptor antagonist compound. (A small amount of dimethyl sulfoxide, for initially dissolving the compound, is optionally used and present in this 50 μl test compound sample.) The cells were then incubated at room temperature (19-21° C.) for 30 min before addition of ATP and ethidium (100 μM final assay concentration). The ATP concentration was chosen to be close to the EC80 for the receptor type and was 1 mM for studies on the human P2X7 receptor. Incubations were continued for 8 or 16 min and were terminated by addition of 25 μl of 1.3M sucrose containing 4 mM of the P2X7 receptor antagonist Reactive Black 5 (Aldrich). Cellular accumulation of ethidium was determined by measuring fluorescence (excitation wavelength of 530 nm and emission wavelength of 620 nm) from below the plate with a Can berra Packard Fluorocount (14 Station Road, Pangbourne, Reading, Berkshire RG8 7AN, United Kingdom) or a FlexStation II 384 from Molecular Molecular Devices (660-665 Eskdale Road, Wokingham, Berkshire RG41 5TS, United Kingdom). Antagonist plC50 values for blocking ATP responses were determined using iterative curve fitting techniques.

Structure (SMILES) | IC50 [nM]
CN1C(C(=O)NCc2ccc(F)cc2Cl)CCS1(=O)=O (stereo not shown) [Example 3, N-[(2-chloro-4-fluorophenyl)methyl]-2-methyl-3-isothiazolidinecarboxamide 1,1-dioxide] | 10 to 316
CC(C)CN1C(C(=O)NCc2ccc(Cl)cc2Cl)CCS1(=O)=O (stereo not shown) [Example 4, N-[(2,4-dichlorophenyl)methyl]-2-(2-methylpropyl)-3-isothiazolidinecarboxamide 1,1-dioxide] | 10 to 316
CC(C)CN1C(C(=O)NCc2ccccc2Cl)CCS1(=O)=O (stereo not shown) [Example 11, N-[(2-chlorophenyl)methyl]-2-(2-methylpropyl)-3-isothiazolidinecarboxamide 1,1-dioxide] | 3980 to 15800
CN1C(C(=O)NCc2ccc(Cl)cc2Cl)CCS1(=O)=O (stereo not shown) [Example 13, N-[(2,4-dichlorophenyl)methyl]-2-methyl-3-isothiazolidinecarboxamide 1,1-dioxide] | 10 to 316
CCN1C(C(=O)NCc2ccc(F)cc2Cl)CCS1(=O)=O (stereo not shown) [Example 15, N-[(2-chloro-4-fluorophenyl)methyl]-2-ethyl-3-isothiazolidinecarboxamide 1,1-dioxide] | 10 to 316
Cc1c(Cl)cccc1CNC(=O)C1CCS(=O)(=O)N1C (stereo not shown) [Example 17, N-[(3-chloro-2-methylphenyl)methyl]-2-methyl-3-isothiazolidinecarboxamide 1,1-dioxide] | 10 to 316
Cc1c(Cl)cccc1CNC(=O)C1CCS(=O)(=O)N1C(C)C (stereo not shown) [Example 18, N-[(3-chloro-2-methylphenyl)methyl]-2-(1-methylethyl)-3-isothiazolidinecarboxamide 1,1-dioxide] | 10 to 316
CCN1C(C(=O)NCc2cccc(Cl)c2C)CCS1(=O)=O (stereo not shown) [Example 20, N-[(3-chloro-2-methylphenyl)methyl]-2-ethyl-3-isothiazolidinecarboxamide 1,1-dioxide] | 10 to 316
CCN1C(C(=O)NCc2ccc(F)cc2C(F)(F)F)CCS1(=O)=O (stereo not shown) [Example 21, 2-ethyl-N-{[4-fluoro-2-(trifluoromethyl)phenyl]methyl}-3-isothiazolidinecarboxamide 1,1-dioxide] | 10 to 316
CC(C)N1C(C(=O)NCc2ccc(F)cc2Cl)CCS1(=O)=O (stereo not shown) [Example 22, N-[(2-chloro-4-fluorophenyl)methyl]-2-(1-methylethyl)-3-isothiazolidinecarboxamide 1,1-dioxide] | 10 to 316
CCN1C(C(=O)NCc2ccc(Cl)cc2Cl)CCS1(=O)=O (stereo not shown) [Example 24, N-[(2,4-dichlorophenyl)methyl]-2-ethyl-3-isothiazolidinecarboxamide 1,1-dioxide] | 10 to 316
CC(C)N1C(C(=O)NCc2ccc(Cl)cc2Cl)CCS1(=O)=O (stereo not shown) [Example 27, N-[(2,4-dichlorophenyl)methyl]-2-(1-methylethyl)-3-isothiazolidinecarboxamide 1,1-dioxide] | 10 to 316
CN1C(C(=O)NCc2cccc(C(F)(F)F)c2Cl)CCS1(=O)=O (stereo not shown) [Example 29, N-{[2-chloro-3-(trifluoromethyl)phenyl]methyl}-2-methyl-3-isothiazolidinecarboxamide 1,1-dioxide] | 10 to 316
CN1C(C(=O)NCc2ccc(F)c(F)c2Cl)CCS1(=O)=O (stereo not shown) [Example 30, N-[(2-chloro-3,4-difluorophenyl)methyl]-2-methyl-3-isothiazolidinecarboxamide 1,1-dioxide] | 10 to 316
CCN1C(C(=O)NCc2ccc(F)c(F)c2Cl)CCS1(=O)=O (stereo not shown) [Example 31, N-[(2-chloro-3,4-difluorophenyl)methyl]-2-ethyl-3-isothiazolidinecarboxamide 1,1-dioxide] | 10 to 316
CCN1C(C(=O)NCc2cccc(C(F)(F)F)c2Cl)CCS1(=O)=O (stereo not shown) [Example 32, N-{[2-chloro-3-(trifluoromethyl)phenyl]methyl}-2-ethyl-3-isothiazolidinecarboxamide 1,1-dioxide] | 10 to 316
CN1C(C(=O)NCc2ccc(Cl)cc2Cl)CCCS1(=O)=O (stereo not shown) [Example 35, N-[(2,4-dichlorophenyl)methyl]-2-methyltetrahydro-2H-1,2-thiazine-3-carboxamide 1,1-dioxide] | 10 to 316
CCN1C(C(=O)NCc2ccc(Cl)cc2Cl)CCCS1(=O)=O (stereo not shown) [Example 36, N-[(2,4-dichlorophenyl)methyl]-2-ethyltetrahydro-2H-1,2-thiazine-3-carboxamide 1,1-dioxide] | 10 to 316
CCN1C(C(=O)NCc2ccccc2Cl)CCCS1(=O)=O (stereo not shown) [Example 39, N-[(2-chlorophenyl)methyl]-2-ethyltetrahydro-2H-1,2-thiazine-3-carboxamide 1,1-dioxide] | 3980 to 15800
Cc1cccc(Cl)c1CNC(=O)C1CCCS(=O)(=O)N1C(C)C (stereo not shown) [Example 41, N-[(2-chloro-6-methylphenyl)methyl]-2-(1-methylethyl)tetrahydro-2H-1,2-thiazine-3-carboxamide 1,1-dioxide] | 3980 to 15800
CC(C)N1C(C(=O)NCc2ccc(F)cc2Cl)CCCS1(=O)=O (stereo not shown) [Example 43, N-[(2-chloro-4-fluorophenyl)methyl]-2-(1-methylethyl)tetrahydro-2H-1,2-thiazine-3-carboxamide 1,1-dioxide] | 3980 to 15800
CC(C)N1C(C(=O)NCc2ccccc2Cl)CCCS1(=O)=O (stereo not shown) [Example 44, N-[(2-chlorophenyl)methyl]-2-(1-methylethyl)tetrahydro-2H-1,2-thiazine-3-carboxamide 1,1-dioxide] | 3980 to 15800
CC(C)N1C(C(=O)NCc2ccc(F)c(F)c2F)CCCS1(=O)=O (stereo not shown) [Example 46, 2-(1-methylethyl)-N-[(2,3,4-trifluorophenyl)methyl]tetrahydro-2H-1,2-thiazine-3-carboxamide 1,1-dioxide] | 3980 to 15800
CC(C)N1C(C(=O)NCc2ccc(F)cc2C(F)(F)F)CCCS1(=O)=O (stereo not shown) [Example 47, N-{[4-fluoro-2-(trifluoromethyl)phenyl]methyl}-2-(1-methylethyl)tetrahydro-2H-1,2-thiazine-3-carboxamide 1,1-dioxide] | 3980 to 15800
CN1C(C(=O)NCc2ccc(F)cc2C(F)(F)F)CCCS1(=O)=O (stereo not shown) [Example 48, N-{[4-fluoro-2-(trifluoromethyl)phenyl]methyl}-2-methyltetrahydro-2H-1,2-thiazine-3-carboxamide 1,1-dioxide] | 3980 to 15800
